The term IC50 denotes the point on the concentration scale where inhibition reaches its midpoint. What is called pIC50 is −log10 of the IC50, conventionally taken in molar units.

The source of these data is PubChem BioAssay AID588780 (Sanford-Burnham Center for Chemical Genomics, 2011).

pIC50: −log10 of the molar value. Calls of active or inactive are those of the source.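 The calls were made as follows: active = compounds whose fitted half-maximal concentration in the cell-protection dose series is at or below a set limit; inactive = the rest.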

This assay deals with H9c2 cardiomyocytes, 2-deoxyglucose stress, ATP luminescence, 2 h. The assay is described as follows: protection of cardiomyocytes from 2-deoxyglucose injury, dose response, cell-based, 2-deoxyglucose stress, uHTS hits (AID 588780).
On to `O=C1c2ccccc2C(=O)N1CCCCSc1nc2ccccc2c(=O)n1CCCN1CCOCC1`, for which the IC50 is 58.6 µM (inactive).

Take `Cc1ccc(C(=O)OCC(=O)Nc2sccc2C(N)=O)cc1NC(=O)c1ccco1`: the IC50 is > 79 µM (inactive). Consider `Cc1cc(C(=O)COc2ccccc2C(N)=O)c(C)n1C`, for which the pIC50 was 4.60. Consider `COC(=O)c1cc(NC(=O)Nc2cc(OC)ccc2OC)cc(C(=O)OC)c1`, for which the IC50 is 38.4 µM (inactive). Take `Cc1csc2nc(COC(=O)c3ccc(Cl)c([N+](=O)[O-])c3)cc(=O)n12`: the IC50 is > 79 µM (inactive). With `COc1ccc(N(C(=O)c2cccnc2)S(=O)(=O)c2cccs2)cc1`, the IC50 is > 79 µM (inactive).

Take `CCOc1cc(/C=C(\C#N)C(=O)Nc2ccc(S(N)(=O)=O)cc2)ccc1OCCN1CCOCC1`: the IC50 is > 79 µM (inactive). On the same count and under the same terms, with `Brc1ccc(-c2nn3c(-c4ccccn4)nnc3s2)o1` the figure was 52.8 µM (inactive). For `N#CCSc1nc2cc(C(=O)N3CCC(C(N)=O)CC3)ccc2c2nc3ccccc3n12`, the pIC50 is 4.82. Take `CCOC(=O)C1CCN(c2cc3c(cc2NC(=O)c2ccccc2Cl)n(C)c(=O)n3C)CC1`: the pIC50 was 4.93. Consider `CCN(CC)S(=O)(=O)c1ccc(N2CCOCC2)c(NC(=O)c2cc(-c3ccccn3)nc3ccccc23)c1`, for which the IC50 was > 79 µM (inactive). In the case of `Cc1cc(C)n(-c2ccc3cccc(NS(C)(=O)=O)c3n2)n1`, the IC50 was > 79 µM (inactive). With `COc1ccccc1-c1cc(NC(C)=O)c2ncc(-c3cccc(C(C)=O)c3)n2c1`, the pIC50 was 4.87. As to `CC(=O)c1cccc(NC(=O)C(C)OC(=O)CCc2nc3ccccc3c(=O)[nH]2)c1` (stereo unspecified), the IC50 was > 79 µM (inactive).

As for `COc1cc(NS(=O)(=O)c2ccc3ccccc3c2)c2ncccc2c1`, the pIC50 was 4.74. With `COc1ccc(-c2csc(NC(=O)c3ccc(OCC(=O)N4CCOCC4)c(OC)c3)n2)cc1OC`, the IC50 is > 79 µM (inactive). Take `COc1ccc(/C=N/NC(=O)c2cccnc2)cc1CN1CCc2ccccc2C1`: the IC50 was > 79 µM (inactive). `COC(=O)/C(=C(O)\C=C\c1ccccc1[N+](=O)[O-])c1nc2ccccc2[nH]1`: the IC50 is > 79 µM (inactive). For `C[C@@H]1CN([C@H](C)CO)S(=O)(=O)c2ccc(C#Cc3ccccc3F)cc2O[C@H]1CN(C)C(=O)c1ccc2c(c1)OCO2`, the IC50 is > 79 µM (inactive).

As to `COC(=O)c1ccc(OCC(=O)Nc2ccccc2C(=O)NC2CC2)cc1`, the pIC50 was 4.97. As to `O=C1c2ccccc2NC(c2ccc([N+](=O)[O-])cc2)N1O` (stereo unspecified), the IC50 was > 79 µM (inactive). As for `COc1ccc(-c2oc3c(OC)c(OC)c(OC)c(O)c3c(=O)c2OC)cc1OC`, the IC50 is > 79 µM (inactive). As for `CCCC(c1nnnn1C(C)(C)CC)N(CCCO)Cc1cc2cc(C)cc(C)c2[nH]c1=O` (stereo unspecified), the IC50 is > 79 µM (inactive). Consider `CCN(CC)CCn1c2c(c(SCC(=O)Nc3cccc(C(C)=O)c3)nc1=O)CCCC2`, for which the pIC50 was 4.88. Turning to `Cc1ccc(-c2nnc(NCc3nc4ccccc4[nH]3)c3ccccc23)cc1S(=O)(=O)N1CCOCC1`, the IC50 is > 79 µM (inactive). On to `COc1ccc(/C=N/NC(=O)c2ccn[nH]2)cc1COc1ccc(Cl)cc1`, for which the IC50 was > 79 µM (inactive). `COc1cc(/C=C/c2nnc3c4ccccc4ncn23)cc(OC)c1OC`: the IC50 was > 79 µM (inactive). Take `O=C(CCc1nc2ccccc2c(=O)[nH]1)NNC(=O)c1ccc(Cl)cc1`: the IC50 was > 79 µM (inactive). `CCN(CC(=O)Nc1cc(Cl)ccc1C)C(=O)CCc1nc2ccccc2c(=O)[nH]1`: the IC50 is > 79 µM (inactive). With `COC(=O)c1ccc(Cn2nnc3c(=O)[nH]c(C4CCCN(S(=O)(=O)c5ccccc5)C4)nc32)cc1` (stereo unspecified), the IC50 was > 79 µM (inactive). Consider `COc1ccc(-c2ccc3[nH]c4c(c3c2)CCN2C[C@H]3[C@H](C)ON(C)[C@H]3C[C@@H]42)cc1`, for which the IC50 was 46.8 µM (inactive).

`CC1Cc2ccccc2N1C(=O)c1cc2c(=O)n3ccccc3nc2n1C` (stereo unspecified): the IC50 was > 79 µM (inactive).

Consider `Cc1ccc(C)c2[nH]c(=O)c(CN(Cc3ccc4c(c3)OCO4)Cc3nnnn3Cc3ccco3)cc12`, for which the pIC50 was 4.88. Regarding `COc1cc(CN2C[C@@H](CO)O[C@@H](n3cnc4c(Nc5ccccc5)ncnc43)C2)cc(OC)c1OC`, the negative-log IC50 (pIC50) was 4.90.

For the molecule `Cc1cccc(NC(=O)c2nc[nH]c2C(=O)NCC(=O)OCc2ccccc2)c1`, the IC50 is > 79 µM (inactive). Consider `CC(C)(C)N=Cc1c(O)ccc2oc3c(c12)CCCC3`, for which the IC50 was > 79 µM (inactive).

On to `COc1ccc(-c2cc3nc(C)cc(N4CCN(C(=O)c5ccoc5)CC4)n3n2)cc1`, for which the IC50 was 51.7 µM (inactive). As to `CCOC(=O)C1=C(COC(=O)/C=C/c2ccc(F)cc2)NC(=O)NC1C` (stereo unspecified), the pIC50 was 4.79. In the case of `COc1ccc(CN(C)C(=O)C(Cc2ccccc2)NC(=O)c2ccccc2)cc1F` (stereo unspecified), the pIC50 is 5.15. For the molecule `O=C(Nc1nc(-c2ccccn2)cs1)c1ccccc1-n1cnnn1`, the IC50 was > 79 µM (inactive). Consider `COC(=O)Cn1c(=NC(=O)c2cc(-c3cccs3)nc3ccccc23)sc2cc(S(N)(=O)=O)ccc21`, for which the pIC50 was 5.16. Regarding `Nc1ncc(-c2ccccc2)n1CC1CCCO1` (stereo unspecified), the IC50 was > 79 µM (inactive). As to `CC(C)(C)OC(=O)C[C@H]1C/C=C\C[C@H](CC(=O)N[C@H](CO)Cc2ccccc2)C(=O)N[C@H](Cc2ccccc2)COC1=O`, the pIC50 was 4.69. For the molecule `CN(CC(=O)Nc1ccccc1Cl)C(=O)CCc1nc2ccccc2c(=O)[nH]1`, the IC50 is 38 µM (inactive). Consider `COC(=O)c1[nH]c2cc(OC)c(OC)cc2c1/C=N/Nc1ccccc1`, for which the IC50 is > 79 µM (inactive).

For the molecule `COc1cc(/C=N/NC(=O)c2ccncc2)ccc1OCC(=O)Nc1ccc(C)c(C)c1`, the IC50 was > 79 µM (inactive). For `O=C(Nc1ccc2c(c1)[nH]c(=O)c1ccccc12)C(F)(F)F`, the IC50 is > 79 µM (inactive). As for `c1coc(-c2nnc3sc(-c4cccs4)nn23)c1`, the IC50 is > 79 µM (inactive). Same read-out and setting: the value for `CCn1c(/C=N/NC(=O)c2ccc(OC)cc2)nc2ccccc21` was > 79 µM (inactive). Still for that read-out and setting: with `COc1ccc(S(=O)(=O)N2CC(O)CC2C(=O)OCc2nc3sc(C)c(C)c3c(=O)[nH]2)cc1` (stereo unspecified) the figure was > 79 µM (inactive); with `CC(=O)c1ccc(-c2cnc3c(NC=O)cc(-c4cccc(NS(C)(=O)=O)c4)cn23)cc1`, > 79 µM (inactive); with `O=c1c2ccccc2nc2c3ccccc3c(NCCO)nn12`, 45.5 µM (inactive). For the molecule `COc1ccc(C(C(=O)NC2CCCC2)N(C(=O)c2snc(C(N)=O)c2N)c2cccc(O)c2)cc1` (stereo unspecified), the IC50 is > 79 µM (inactive). Regarding `N#CCCn1c(SCC(=O)c2c[nH]c3ccccc23)nc2ccccc21`, the IC50 was 49.4 µM (inactive).

For the molecule `CCCNC(=O)c1ccc2c(=O)c(O)c(-c3ccc(F)cc3)[nH]c2c1`, the IC50 was > 79 µM (inactive). As for `CCOC(=O)C1CCCN(C(=O)CCC(=O)Nc2ccc3nc(N4CCOCC4)cc(C)c3c2)C1` (stereo unspecified), the pIC50 is 4.96. As for `COc1ccc2[nH]c(=O)c(CN(CC3CCCO3)S(=O)(=O)c3ccccc3F)cc2c1` (stereo unspecified), the pIC50 was 4.80. For `CC(Oc1cccc(Br)c1)C(=O)NNC(=O)c1ccccn1` (stereo unspecified), the IC50 was > 79 µM (inactive). As to `Cc1noc(C)c1Cn1nc(C(=O)O)c2ccccc2c1=O`, the IC50 is > 79 µM (inactive). As to `O=C(N/N=C/c1cn(-c2ccccc2)nc1-c1cccnc1)c1cccnc1`, the IC50 is > 79 µM (inactive).

For `COc1cc(C(=O)N/N=C/c2ccc(OC(=O)c3ccccc3Cl)cc2)ccc1O`, the IC50 is > 79 µM (inactive). With `COc1cccc(-c2cc3nc(C)c(C)c(N4CCN(C(=O)c5ccoc5)CC4)n3n2)c1`, the IC50 is > 79 µM (inactive).

As for `CC1CCCC(C)N1C(=O)CSc1nc2ccccc2c(=O)[nH]1` (stereo unspecified), the IC50 is > 79 µM (inactive). Regarding `Oc1ccc(Cl)cc1C=Nc1ccc2c3c(cccc13)CC2`, the IC50 is > 79 µM (inactive).

As to `Cc1ccc(NC(=O)c2nc[nH]c2C(=O)NCCCCCCNC(=O)c2[nH]cnc2C(=O)Nc2ccc(C)cc2)cc1`, the IC50 is > 79 µM (inactive). Regarding `O=C(CC1CC2CCC1C2)Nc1nc(-c2ccccn2)cs1` (stereo unspecified), the IC50 was > 79 µM (inactive). Consider `CC(=O)Nc1cc(-c2ccc(C(=O)N3CCOCC3)cc2)cn2c(-c3ccc(C(C)=O)cc3)cnc12`, for which the pIC50 was 4.60.

With `COc1ccc(S(=O)(=O)N2CCOCC2)cc1NC(=O)c1cccc2c(=O)c(C)c(-c3ccccc3)oc12`, the pIC50 is 4.74. `NC(=O)c1ccc(NC(=O)COc2cccc3c2CCNC3=O)cc1`: the IC50 was > 79 µM (inactive). For `COCCOC(=O)N/C=C\c1nc2ccccc2c(=O)[nH]1`, the pIC50 is 4.57.

With `CCC(C)N1C(=O)S/C(=C/c2ccc3c(c2)n(C)c(=O)n3C)C1=O` (stereo unspecified), the IC50 was > 79 µM (inactive).

With `CC(=O)Nc1ccc(S(=O)(=O)N(Cc2cccnc2)Cc2cc3ccccc3[nH]c2=O)cc1`, the IC50 is > 79 µM (inactive). For the molecule `COc1cc2nc(C3CCC3)nc(N3CCN(c4ccccn4)CC3)c2cc1OC`, the IC50 is > 79 µM (inactive).

On to `O=C(CCc1nc2ccccc2c(=O)[nH]1)N1CCN(S(=O)(=O)c2ccc(F)cc2)CC1`, for which the IC50 is > 79 µM (inactive). `O=C(Oc1ccc2c(-c3ccccc3)cc(=O)oc2c1)C1CCCCC1`: the IC50 is 32.9 µM (inactive).

Turning to `CCCCN1CC(COCc2ccccc2)Oc2cccc(OCCN3C(=O)[C@@H]4[C@H](C3=O)C3C=C[C@H]4C3)c2S1(=O)=O` (stereo partly specified), the IC50 is > 79 µM (inactive).

`CC(OC(=O)Cn1[nH]c(=O)c2ccccc2c1=O)C(=O)Nc1ccccc1[N+](=O)[O-]` (stereo unspecified): the pIC50 was 4.55. With `CC(=O)NCc1ccc(-c2csc(NC(=O)CCc3nc4ccccc4c(=O)[nH]3)n2)s1`, the IC50 was > 79 µM (inactive). With `O=C(N/N=C/c1ccncc1)c1ccc(COc2cccc3cccnc23)cc1`, the IC50 was > 79 µM (inactive). With `CCN(C[C@H]1N[C@@](CC)(C(=O)OC)[C@H]2C(=O)N(Cc3ccccc3)C(=O)[C@@H]12)S(=O)(=O)c1ccc(F)cc1`, the IC50 was > 79 µM (inactive). On to `CCC(C)Nc1ncnc2c1cnn2Cc1ccc(Cl)cc1` (stereo unspecified), for which the IC50 is > 79 µM (inactive).
